Laboratory results as given in ChEMBL document CHEMBL1201862, “PubChem BioAssay data set” (2004).
The source made the active and inactive calls.

Key:
[1] = target: Glucose-6-phosphate 1-dehydrogenase (Homo sapiens, UniProt P11413); assay: inhibition of Homo sapiens G6PD, dose series – biochemical, fluorescence, selectivity assay for P. falciparum G6PD inhibitor project, dose response (AID 504792); format: functional
Mu-type opioid receptor = Mu-type opioid receptor (Homo sapiens, UniProt P35372); format: functional, cell-based;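 also: U2OS cells with beta-arrestin recruitment to OPRM1 by beta-gal complementation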
[2] = target: 5-hydroxytryptamine receptor 2A (Mus musculus, UniProt P35363); format: functional, cell-based;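 also: CHO-K1 cells with tagged receptor and beta-arrestin; agonist potency measured as compound-induced activation of the receptor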
[3] = target: T1, Probable nicotinate-nucleotide adenylyltransferase (Staphylococcus aureus (strain N315), UniProt P65502); format: functional, Staphylococcus aureus subsp. aureus N315; details: read-out: IC50_Mean;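 as to IC50 Mean: confirmatory dose-response retesting of NadD inhibitor hits first found in an ultra-high-throughput screen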
[4] = target: T1, Probable nicotinate-nucleotide adenylyltransferase; format: functional, Staphylococcus aureus subsp. aureus N315
Streptococcus = assay: GAS UMAA2166 growth inhibition – luminescence, BacTiterGlo, counter-screen for streptokinase expression inhibitor project, dose response (AID 1915); format: functional, organism-based;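 also: potency for reduction of bacterial viability or growth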
Vero = assay: cells; format: functional; details: Chlorocebus sabaeus
[5] = fluconazole-exposed Candida albicans growth modulators – fluorescence, retest, confirmation (AID 2467); format: functional, cell-based
[6] = test system: Streptococcus sp. 'group A'; assay: Streptococcus pyogenes SK(-)GAS viability under kanamycin – luminescence, BacTiterGlo, confirmation, counter-screen for streptokinase expression inhibitor project, dose response (AID 1900); format: functional, organism-based
[7] = target: T2, Serine/threonine-protein phosphatase (Candida dubliniensis (strain CD36 / CBS 7987 / NCPF 3949 / NRRLY-17841) (Yeast), UniProt B9W6M3); assay: blockers of CaCl2-induced CDRE-lacZ signaling – S. cerevisiae, luminescence, secondary, dose response (AID 2388); format: functional, cell-based;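 also: yeast reporter cells carrying a calcineurin-responsive lacZ construct stimulated with calcium chloride; luminescent beta-galactosidase reporter signal in whole cells rather than isolated phosphatase activity; potency for inhibition where a drop in reporter signal means calcineurin blockade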
T2 sequence (B9W6M3 whole entry): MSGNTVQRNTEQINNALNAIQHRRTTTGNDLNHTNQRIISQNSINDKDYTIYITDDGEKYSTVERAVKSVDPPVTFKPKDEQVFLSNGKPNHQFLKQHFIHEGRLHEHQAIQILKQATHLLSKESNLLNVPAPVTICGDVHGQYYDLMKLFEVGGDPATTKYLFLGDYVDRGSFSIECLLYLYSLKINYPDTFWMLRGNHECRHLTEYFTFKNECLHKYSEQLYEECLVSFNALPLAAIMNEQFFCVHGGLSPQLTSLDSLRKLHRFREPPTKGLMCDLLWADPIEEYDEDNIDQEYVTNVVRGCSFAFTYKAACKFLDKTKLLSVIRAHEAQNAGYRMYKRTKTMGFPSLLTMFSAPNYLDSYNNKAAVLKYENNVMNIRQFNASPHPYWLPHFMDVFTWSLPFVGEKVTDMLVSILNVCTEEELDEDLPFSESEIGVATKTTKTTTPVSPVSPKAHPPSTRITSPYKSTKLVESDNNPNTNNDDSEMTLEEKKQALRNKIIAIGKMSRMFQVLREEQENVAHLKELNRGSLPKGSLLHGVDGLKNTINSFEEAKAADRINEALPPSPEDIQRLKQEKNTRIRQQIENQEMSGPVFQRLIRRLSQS

[8] = NIH-3T3 fibroblast cytotoxicity, dose response, cytotoxicity control, cell-based, fluorescence, Alamar Blue, secondary assay (AID 2327); format: functional;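 also: NIH-3T3 mouse fibroblasts cultured with fluconazole at 8 µg/mL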
[9] = target: ATP-dependent molecular chaperone HSP82 (Candida albicans (strain WO-1) (Yeast), UniProt C4YTQ8); assay: steroid-induced GRE reporter decrease in yeast – S. cerevisiae, luminescence, Hsp90 inhibitor project, dose response (AID 2400); format: functional, cell-based;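 also: beta-galactosidase luminescence from glucocorticoid response element reporter as proxy for Hsp90 function; inhibitor potency where signal loss means Hsp90 inhibition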
[10] = intracellular Trypanosoma cruzi inhibitors in host cells – cell-based, plate reader, cherry-pick samples, set 3, dose response (AID 651818); format: functional;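 also: compounds incubated with infected cells for about four days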
Fatty acid synthase [11] = target: T3, Fatty acid synthase (Homo sapiens, UniProt P49327); assay: inhibition of human FAS-TE enzyme activity – biochemical, endpoint fluorescence intensity, uHTS hits, dose response (AID 624327); format: functional;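 also: fluorescence from hydrolysis of an O-methyl fluorescein acyl ester substrate by the enzyme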
Fatty acid synthase [12] = target: T3, Fatty acid synthase; assay: inhibition of human FAS-TE enzyme activity – biochemical, kinetic fluorescence intensity, dose response (AID 624326); format: functional;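 also: rate of fluorescence rise from hydrolysis of a fluorogenic O-methyl fluorescein ester substrate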
Albumin = Albumin (Bos taurus, UniProt P02769); assay: Counterscreen for inhibitors of T-cell receptor (TCR)-CD3 interaction: Fluorescence-based biochemical high throughput dose response assay to identify inhibitors of T-cell receptor (TCR)-CD3 interaction using a TAMRA-labeled BSA probe.; format: functional
Major prion protein = Major prion protein (Homo sapiens, UniProt P04156); format: functional, cell-based
HEK293 = assay: EBV LMP1 TES2 canonical NF-kB signalling blockers – cell-based, HEK293, luciferase, cherry-pick, dose response (AID 588343); format: functional; details: Homo sapiens
[13] = luciferase reporter signal suppression in cells – H4 neuroglioma cells, luminescence, dose response (AID 1990); format: functional, cell-based
[14] = blockers of HIV-1 envelope-mediated cell-cell fusion – cherry-pick, dose response (AID 652057); format: functional, cell-based
[15] = blockers of HIV-1 ZM109 envelope-driven cell-cell fusion – HeLa effector, CEM target cells, luciferase, cherry-pick, dose response (AID 652058); format: functional, cell-based;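 also: luciferase signal from HIV-1 Env mediated cell-cell fusion of effector and target cells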
[16] = HIV-1 AD8 envelope cell-cell fusion blockers – cherry-pick, dose response (AID 652062); format: functional, cell-based;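 also: luciferase signal from cell-cell fusion driven by HIV-1 clade B AD8 Env; potency is for inhibitors of fusion seen as a drop in luminescence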
[17] = Luminescence Cell-Based Dose Response HTS to Identify Inhibitors of 5'UTR Stem-Loop Driven Prion Protein mRNA Translation in H4 Neuroglioblastoma Cells. [Related pubchem assays: 1827 (Project Summary), 1813 (Primary HTS)]; format: functional
[18] = viability loss in CEM21 cells – cell-based, CellTiter-Glo luminescence, cherry-picked, cytotoxicity control for viral fusion inhibitor project, dose response (AID 652042); format: functional;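 also: potency for signal decrease meaning cytotoxicity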
[19] = alpha-synuclein stem-loop luciferase translation blockers – H4 neuroglioma cells, luminescence, confirmation (AID 1988); format: functional, cell-based
INS1 = assay: INS-1E survival protection against cytokine death – cell-based, luminescence, retest, dose response (AID 449756); format: functional; details: Rattus norvegicus;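 also: cell death triggered by IL-1 beta plus TNF-alpha plus IFN-gamma mixture; protective hits raise ATP signal compared with cytokine alone wells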
Beta-galactosidase = Beta-galactosidase (Escherichia coli, UniProt Q8VNN2); assay: Dose response counterscreen for EBI2 assay utilizing the enzyme, b-galactosidase.; format: functional

Question: Which results are given for `NC1CCc2cc(O)c(O)cc2C1` (centres undefined)?
Answer: IC50 [1]: > 80 µM (inactive); EC50 (Mu-type opioid receptor): 92.5 µM (inactive); EC50 [2]: 0.0131 µM (active)

Question: With `Cc1cccc2sc(NNC(=O)c3cc(-c4cccs4)nc4ccccc34)nc12` as the compound, how does the IC50 [3] read?
Answer: 26.7 µM (active)

Question: And the IC50 [4]?
Answer: 13.3 µM (active)

Question: And the EC50 (Streptococcus)?
Answer: 2.14 µM (active)

Question: What about the CC50 (Vero) of the same compound?
Answer: 11.5 µM (active)

Question: What about the EC50 [5] of the same compound?
Answer: 0.507 µM (active)

Question: And the EC50 [6]?
Answer: 0.889 µM (active)

Question: What about the EC50 [7] of the same compound?
Answer: > 180 µM (inactive)

Question: What about the EC50 [8] of the same compound?
Answer: 10.7 µM (inconclusive)

Question: And the EC50 [9]?
Answer: 16.2 µM (active)

Question: With `C[C@H](CO)N1C[C@H](C)[C@H](CN(C)Cc2ccc(C(F)(F)F)cc2)Oc2ccc(NC(=O)Nc3cccc4ccccc34)cc2CC1=O` as the compound, how does the AC50 [10] read?
Answer: 1.05 µM (active)

Question: With `CC1(C(=O)Nc2ccc(Cl)c(Cl)c2)CCN1C(=O)CC1CCCC1` (centres undefined) as the compound, how does the IC50 (Fatty acid synthase [11]) read?
Answer: 8.5 µM (active)

Question: What about the IC50 (Fatty acid synthase [12]) of the same compound?
Answer: 4.39 µM (active)

Question: Which AC50 [10] does the source give for `C[C@@H]1CN([C@@H](C)CO)C(=O)Cc2cc(NC(=O)Nc3ccc(F)cc3)ccc2O[C@@H]1CN(C)Cc1ccc(C(F)(F)F)cc1` here?
Answer: 4.91 µM (active)

Question: With `COc1ccccc1C(=O)NNC(=O)c1ccc2ccccc2c1O` as the compound, how does the IC50 (Albumin) read?
Answer: > 94.2 µM (inactive)

Question: Which IC50 (Major prion protein) does the source give for `Brc1ccc2nc(-c3ccc(CN4CCC5(CC4)CNc4ccccc45)cc3)c(-c3ccccc3)nc2c1` here?
Answer: 7.84 µM (active)

Question: What about the IC50 (cells) of the same compound?
Answer: > 138 µM (inactive)

Question: Which AC50 [10] does the source give for `Cc1noc(C)c1S(=O)(=O)Nc1ccc2c(c1)CC(=O)N([C@H](C)CO)C[C@@H](C)[C@@H](CN(C)Cc1ccc(C(F)(F)F)cc1)O2` here?
Answer: 5.96 µM (active)

Question: What does the source list for `Cc1ccc2[nH]c(SCC(=O)Nc3ccc(F)c([N+](=O)[O-])c3)nc2c1`?
Answer: IC50 (Fatty acid synthase [11]): 6.64 µM (active); IC50 (Fatty acid synthase [12]): 8 µM (active)

Question: Which AC50 (HEK293) does the source give for `CCCc1cc(=O)n2ncc(-c3ccc(Cl)cc3)c2[nH]1` here?
Answer: 4.07 µM (active)

Question: And the EC50 [13]?
Answer: 11.6 µM (active)

Question: What about the EC50 (Streptococcus) of the same compound?
Answer: 5.62 µM (active)

Question: And the AC50 [14]?
Answer: 2.65 µM (active)

Question: And the AC50 [15]?
Answer: 7.51 µM (active)

Question: What about the AC50 [16] of the same compound?
Answer: 11.2 µM (active)

Question: And the EC50 [17]?
Answer: 12.3 µM (active)

Question: And the AC50 [18]?
Answer: 4.59 µM (active)

Question: What about the EC50 [6] of the same compound?
Answer: 1.71 µM (active)

Question: And the EC50 [19]?
Answer: 10.9 µM (active)

Question: And the AC50 (INS1)?
Answer: 5.79 µM (active)

Question: Which results are given for `COc1cc(OC)c(N2CC(C(=O)NCCC3=CCCCC3)CC2=O)cc1Cl` (centres undefined)?
Answer: IC50 (Fatty acid synthase [11]): 9.83 µM (active); IC50 (Fatty acid synthase [12]): 11.8 µM (active)

Question: With `C=CCOc1ccc(C(=O)/C=C2/C(=O)Nc3ccccc32)cc1` as the compound, how does the IC50 (Beta-galactosidase) read?
Answer: > 80 µM (inactive)

Question: For `CN(c1ccc(C(=O)N2CCN(Cc3ccccc3)CC2)cc1)S(=O)(=O)c1ccc(Cl)cc1`, which EC50 (Mu-type opioid receptor) is on record?
Answer: 92.4 µM (inactive)

Question: And the EC50 [2]?
Answer: 2.82 µM (active)

Question: Which AC50 [10] does the source give for `C[C@H](CO)N1C[C@H](C)[C@@H](CN(C)Cc2ccncc2)Oc2c(NC(=O)c3ccc(-c4nccs4)cc3)cccc2C1=O` here?
Answer: 20 µM (inactive)
